Measurements published in US20140364431A1, “Quinoline and cinnoline derivatives and their applications” (Shenyang Pharmaceutical University, priority 2011, published 2014).
Values after ≈ are worked out from the molar mass of the structure shown. Where two headings read alike, the source gives them in different places.

Tests used:
[1] = system: MKN-45 (human gastric carcinoma cell); experiment: In vitro anti-tumor cellular activity (MTT), MKN-45; type: cell-based; details: for IC50: Homo sapiens, read-out: MKN-45 IC50
[2] = system: U87MG (Human malignant glioblastoma cells); experiment: In vitro anti-tumor cellular activity (MTT), U87MG; type: cell-based; details: for IC50: Homo sapiens, U-87 MG, read-out: U87MG IC50
[3] = system: SMMC-7721 (hepatoma cell); experiment: In vitro anti-tumor cellular activity (MTT), SMMC-7721; type: cell-based, human; details: for IC50: Homo sapiens, read-out: SMMC-7721 IC50
[4] = system: HT-29 (colon cancer cell); experiment: In vitro anti-tumor cellular activity (MTT), HT-29; type: cell-based, human; details: for IC50: Homo sapiens, read-out: HT-29 IC50
[5] = system: H460 (human lung cancer cell); experiment: In vitro anti-tumor cellular activity (MTT), H460; type: cell-based; details: for IC50: Homo sapiens, read-out: H460 IC50
[6] = target: T1, c-Met (His-tagged recombinant human Met (Amino acids 974-ends)) (Homo sapiens, UniProt P08581); experiment: c-Met kinase assay (ELISA); type: biochemical; details: 50 pM c-Met, 5 μM ATP, 20 min
T1 construct: His-tagged recombinant human Met (Amino acids 974-ends); His; host or cells: baculovirus expression
Method: c-Met kinase activity was measured with an ELISA reader.
The reaction mixture was removed by washing with 0.2 μg/mL conjugated horseradish peroxidase (HRP) monoclonal antibody specific for phosphotyrosine (PY20) detecting phosphorylation of the substrate polymer. 1M phosphoric acid was added to terminate the color, the chromogenic substrate (TMB) was tested by spectrophotometry at 450 nm.

T1 sequence (P08581 974-1390 limits assumed): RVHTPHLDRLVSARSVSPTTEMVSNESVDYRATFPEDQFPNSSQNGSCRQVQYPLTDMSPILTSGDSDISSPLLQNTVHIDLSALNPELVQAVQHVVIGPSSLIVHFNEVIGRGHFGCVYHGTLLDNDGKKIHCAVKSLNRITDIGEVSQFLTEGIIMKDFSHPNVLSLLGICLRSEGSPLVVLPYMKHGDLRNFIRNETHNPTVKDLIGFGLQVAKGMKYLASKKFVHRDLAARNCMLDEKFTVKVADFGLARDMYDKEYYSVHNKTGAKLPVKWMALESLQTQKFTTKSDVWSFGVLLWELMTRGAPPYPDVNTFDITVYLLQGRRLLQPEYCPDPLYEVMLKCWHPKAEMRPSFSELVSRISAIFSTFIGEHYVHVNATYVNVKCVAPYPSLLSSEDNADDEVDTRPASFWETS

| Compound | MKN-45 IC50 ([1]; MTT, 72 hours, MKN-45) [µg/mL] | U87MG IC50 ([2]; MTT, 72 hours, U87MG) [µg/mL] | SMMC-7721 IC50 ([3]; MTT, 72 hours, SMMC-7721) [µg/mL] | HT-29 IC50 ([4]; MTT, 72 hours, HT-29) [µg/mL] | H460 IC50 ([5]; MTT, 72 hours, H460) [µg/mL] | c-Met IC50 [6] [µg/mL] | IC50 ([1]; MKN-45, 72 h) [µg/mL] | IC50 ([2]; 72 h) [µg/mL] | IC50 ([3]; SMMC-7721, 72 h) [µg/mL] | IC50 ([4]; HT-29, 72 h) [µg/mL] | IC50 ([5]; NCI-H460, 72 h) [µg/mL] | IC50 [6] [nM] | IC50 ([1]; MTT, 72 hours, MKN-45) [µg/mL] | IC50 ([2]; MTT, 72 hours, U87MG) [µg/mL] | IC50 ([3]; MTT, 72 hours, SMMC-7721) [µg/mL] | IC50 ([4]; MTT, 72 hours, HT-29) [µg/mL] | IC50 ([5]; NCI-H460, MTT, 72 hours, H460) [µg/mL] |
| --- | --- | --- | --- | --- | --- | --- | --- | --- | --- | --- | --- | --- | --- | --- | --- | --- | --- |
| N-(3-fluoro-4-((6-methoxy-7-(3-(4-methylpiperidin-1-yl)propoxy)quinolin-4-yl)oxy)phenyl)-1-(3,4-difluorophenyl)-4-oxo-1,4-dihydroquinoline-3-carboxamide [Example 58] | 1.8 | 2.1 | 1.1 | 0.95 | 1.4 | 0.72 |  |  |  |  |  |  |  |  |  |  |  |
| COc1cc2c(Oc3ccc(NC(=O)c4nn(-c5ccc(Cl)cc5Cl)c5ccccc5c4=O)cc3F)ccnc2cc1OCCCN1CCC(C)CC1 [Example 28, N-(3-fluoro-4-((6-methoxy-7-(3-(4-methylpiperidin-1-yl)propoxy)quinolin-4-yl)oxy)phenyl)-1-(2,4-dichlorophenyl)-4-oxo-1,4-dihydrocinnoline-3-carboxamide] |  |  |  |  |  |  | 1.8 (≈ 2.38 µM) | 1.6 (≈ 2.11 µM) | 1.3 (≈ 1.72 µM) | 0.9 (≈ 1.19 µM) | 2.3 (≈ 3.04 µM) | 1720 |  |  |  |  |  |
| COc1cc2c(Oc3ccc(NC(=O)c4nn(-c5ccc(F)cc5)c5ccccc5c4=O)cc3F)ccnc2cc1OCCCN1CCOCC1 [Example 36, N-(3-fluoro-4-((6-methoxy-7-(3-(morpholin-4-yl)propoxy)quinolin-4-yl)oxy)phenyl)-1-(4-fluorophenyl)-4-oxo-1,4-dihydrocinnoline-3-carboxamide] |  |  |  |  |  |  |  |  |  |  |  | 966 | 1.3 (≈ 1.87 µM) | 1.5 (≈ 2.16 µM) | 0.87 (≈ 1.25 µM) | 0.7 (≈ 1.01 µM) | 1.1 (≈ 1.59 µM) |
| COc1cc2c(Oc3ccc(NC(=O)c4nn(-c5ccc(Cl)cc5)c5ccccc5c4=O)cc3F)cnnc2cc1OCCCN1CCOCC1 [Example 66, N-(3-fluoro-4-((6-methoxy-7-(3-(morpholin-4-yl)propoxy)cinnolin-4-yl)oxy)phenyl)-1-(4-chlorophenyl)-4-oxo-1,4-dihydrocinnoline-3-carboxamide] |  |  |  |  |  |  |  |  |  |  |  | 562 | 2.4 (≈ 3.37 µM) | 2.1 (≈ 2.95 µM) | 1.7 (≈ 2.39 µM) | 1.4 (≈ 1.97 µM) | 0.89 (≈ 1.25 µM) |
| COc1cc2c(Oc3ccc(NC(=O)c4nn(-c5ccccc5Br)c5ccccc5c4=O)cc3F)ccnc2cc1OCCCN1CCN(C)CC1 [Example 35, N-(3-fluoro-4-((6-methoxy-7-(3-(4-methylpiperazin-1-yl)propoxy)quinolin-4-yl)oxy)phenyl)-1-(2-bromophenyl)-4-oxo-1,4-dihydrocinnoline-3-carboxamide] |  |  |  |  |  |  | 2.1 (≈ 2.74 µM) | 1.3 (≈ 1.69 µM) | 1.5 (≈ 1.95 µM) | 0.9 (≈ 1.17 µM) | 2.5 (≈ 3.26 µM) | 1430 |  |  |  |  |  |
| COc1cc2c(Oc3ccc(NC(=O)c4cn(-c5ccccc5Cl)c5ccccc5c4=O)cc3F)ccnc2cc1OCCCN1CCC(C)CC1 [Example 54, N-(3-fluoro-4-((6-methoxy-7-(3-(4-methylpiperidin-1-yl)propoxy)quinolin-4-yl)oxy)phenyl)-1-(2-chlorophenyl)-4-oxo-1,4-dihydroquinoline-3-carboxamide] |  |  |  |  |  |  |  |  |  |  |  | 971 | 0.49 (≈ 0.679 µM) | 0.14 (≈ 0.194 µM) | 0.52 (≈ 0.721 µM) | 0.63 (≈ 0.874 µM) | 0.63 (≈ 0.874 µM) |
| COc1cc2c(Oc3ccc(NC(=O)c4cn(-c5ccccc5F)c5ccccc5c4=O)cc3F)ccnc2cc1OCCCN1CCCCC1 [Example 50, N-(3-fluoro-4-((6-methoxy-7-(3-(piperidin-1-yl)propoxy)quinolin-4-yl)oxy)phenyl)-1-(2-fluorophenyl)-4-oxo-1,4-dihydroquinoline-3-carboxamide] |  |  |  |  |  |  |  |  |  |  |  | 869 | 0.45 (≈ 0.651 µM) | 0.35 (≈ 0.507 µM) | 0.87 (≈ 1.26 µM) | 0.38 (≈ 0.55 µM) | 0.58 (≈ 0.84 µM) |
| COc1cc2c(Oc3ccc(NC(=O)c4nn(-c5ccc(Cl)cc5)c5ccccc5c4=O)cc3F)cnnc2cc1OCCCN1CCC(C)CC1 [Example 67, N-(3-fluoro-4-((6-methoxy-7-(3-(4-methylpiperidin-1-yl)propoxy)cinnolin-4-yl)oxy)phenyl)-1-(4-chlorophenyl)-4-oxo-1,4-dihydrocinnoline-3-carboxamide] |  |  |  |  |  |  |  |  |  |  |  | 1520 | 2.2 (≈ 3.04 µM) | 1.7 (≈ 2.35 µM) | 1.6 (≈ 2.21 µM) | 0.96 (≈ 1.33 µM) | 2.5 (≈ 3.46 µM) |
| COc1cc2c(Oc3ccc(NC(=O)c4nn(-c5ccccc5C(F)(F)F)c5ccccc5c4=O)cc3F)ccnc2cc1OCCCN1CCCC1.Cl.Cl [Example 1, N-(3-fluoro-4-((6-methoxy-7-(3-(pyrrolidin-1-yl)propoxy)quinolin-4-yl)oxy)phenyl)-1-(2-(trifluoromethyl)phenyl)-4-oxo-1,4-dihydrocinnoline-3-carboxamide dihydrochloride] |  |  |  |  |  |  |  |  |  |  |  | 62.5 | 0.27 | 0.18 | 0.57 | 0.18 | 0.04 |
| COc1cc2c(Oc3ccc(NC(=O)c4cn(-c5ccccc5F)c5ccccc5c4=O)cc3F)ccnc2cc1OCCCN1CCCC1 [Example 51, N-(3-fluoro-4-((6-methoxy-7-(3-(pyrrolidin-1-yl)propoxy)quinolin-4-yl)oxy)phenyl)-1-(2-fluorophenyl)-4-oxo-1,4-dihydroquinoline-3-carboxamide] |  |  |  |  |  |  |  |  |  |  |  | 296 | 0.24 (≈ 0.355 µM) | 0.28 (≈ 0.414 µM) | 0.53 (≈ 0.783 µM) | 0.41 (≈ 0.606 µM) | 0.58 (≈ 0.857 µM) |
| COc1cc2c(Oc3ccc(NC(=O)c4cn(-c5ccccc5F)c5ccccc5c4=O)cc3F)ccnc2cc1OCCCN1CCN(C)CC1 [Example 52, N-(3-fluoro-4-((6-methoxy-7-(3-(4-methylpiperazin-1-yl)propoxy)quinolin-4-yl)oxy)phenyl)-1-(2-fluorophenyl)-4-oxo-1,4-dihydroquinoline-3-carboxamide] |  |  |  |  |  |  |  |  |  |  |  | 2270 | 0.67 (≈ 0.949 µM) | 0.87 (≈ 1.23 µM) | 1.8 (≈ 2.55 µM) | 1.1 (≈ 1.56 µM) | 1.4 (≈ 1.98 µM) |
| COc1cc2c(Oc3ccc(NC(=O)c4cn(-c5ccccc5Cl)c5ccccc5c4=O)cc3F)ccnc2cc1OCCCN1CCCCC1 [Example 53, N-(3-fluoro-4-((6-methoxy-7-(3-(piperidin-1-yl)propoxy)quinolin-4-yl)oxy)phenyl)-1-(2-chlorophenyl)-4-oxo-1,4-dihydroquinoline-3-carboxamide] |  |  |  |  |  |  |  |  |  |  |  | 707 | 0.47 (≈ 0.665 µM) | 0.21 (≈ 0.297 µM) | 0.29 (≈ 0.41 µM) | 0.93 (≈ 1.32 µM) | 0.79 (≈ 1.12 µM) |
| COc1cc2c(Oc3ccc(NC(=O)c4cn(-c5ccccc5Cl)c5ccccc5c4=O)cc3F)ccnc2cc1OCCCN1CCCC1 [Example 55, N-(3-fluoro-4-((6-methoxy-7-(3-(pyrrolidin-1-yl)propoxy)quinolin-4-yl)oxy)phenyl)-1-(2-chlorophenyl)-4-oxo-1,4-dihydroquinoline-3-carboxamide] |  |  |  |  |  |  | 0.29 (≈ 0.418 µM) | 0.18 (≈ 0.26 µM) | 0.53 (≈ 0.765 µM) | 0.37 (≈ 0.534 µM) | 0.74 (≈ 1.07 µM) | 1300 |  |  |  |  |  |
| N-(3-fluoro-4-((6-methoxy-7-(3-(pyrrolidin-1-yl)propoxy)quinolin-4-yl)oxy)phenyl)-1-(2-c hlorophenyl)-4-oxo-1,4-dihydrocinnoline-3-carboxamide dihydrochloride [Example 16] | 1.1 | 0.2 | 0.45 | 0.57 | 0.69 | 0.9 |  |  |  |  |  |  |  |  |  |  |  |
| COc1cc2c(Oc3ccc(NC(=O)c4nn(-c5ccc(Br)cc5F)c5ccccc5c4=O)cc3F)cnnc2cc1OCCCN1CCOCC1 [Example 68, N-(3-fluoro-4-((6-methoxy-7-(3-(morpholin-4-yl)propoxy)cinnolin-4-yl)oxy)phenyl)-1-(4-bromo-2-fluorophenyl)-4-oxo-1,4-dihydrocinnoline-3-carboxamide] |  |  |  |  |  |  |  |  |  |  |  | 1160 | 2.5 (≈ 3.23 µM) | 1.3 (≈ 1.68 µM) | 2.9 (≈ 3.75 µM) | 2.1 (≈ 2.71 µM) | 1.5 (≈ 1.94 µM) |
